According to patent US4931440A, “Uricosuric composition” (Fujisawa Pharmaceutical Company, Ltd., priority 1987, dated 1990):

What was measured:
[1] = Effect on uric acid excretion in female rats (urinary uric acid assayed by HPLC); assay type: in vivo, female SD rats; details: p.o., urine collected 0-6 hr, dose 0: 3.07 ± 0.44
Procedure: Female SD rats (6 weeks old) were fasted for 18 hours and submitted to the test (3 animals per group).
Compound B was suspended in 0.5% methylcellulose solution and the suspension was orally administered in a dosing volume of 5 ml/kg.
At the same time, the animals were orally loaded with 20 ml/kg of physiological saline. Urine samples were collected up to 6 hours after drug administration. The uric acid in each urine sample was assayed by HPLC.

[2] = Acute toxicity, oral, 14 days observation; details: rat, in vivo, male SD rats
From the text: Male SD rats (5 animals per group) were orally dosed with a suspension of the test compound in 0.5% methylcellulose solution and observed for 14 days after oral administration.

[3] = Uricosuric action: serum uric acid level in healthy male adult volunteers; assay type: in vivo, humans; details: single oral dose 600 mg (two capsules of Example 1), N = 6
Procedure: Compound A, in a single dose of 600 mg (two capsules according to the example (1) given hereinafter), was administered orally to six humans (healthy male adult volunteers) and the serum uric acid level was determined for 48 hours after administration.

Row | SMILES | Excretion of uric acid, mean ± S.E. ([1]; 10 mg/kg) [mg/kg] | Excretion of uric acid, mean ± S.E. ([1]; 100 mg/kg) [mg/kg] | Excretion of uric acid, mean ± S.E. ([1]; 320 mg/kg, *: P < 0.05) [mg/kg] | LD50 at 336 h [2] [mg/kg] | Serum uric acid concentration, mean ± standard deviation ([3]; 4 Hrs. after administration, *: significant decrease from baseline (5.5500 ± 0.9439), < 0.05) [mg/dL] | Serum uric acid concentration, mean ± standard deviation ([3]; 8 Hrs. after administration, **: significant decrease from baseline (5.5500 ± 0.9439), P < 0.01) [mg/dL] | Serum uric acid concentration, mean ± standard deviation ([3]; 12 Hrs. after administration, **: significant decrease from baseline (5.5500 ± 0.9439), P < 0.01) [mg/dL] | Serum uric acid concentration, mean ± standard deviation ([3]; 24 Hrs. after administration, *: significant decrease from baseline (5.5500 ± 0.9439), < 0.05) [mg/dL] | Serum uric acid concentration, mean ± standard deviation ([3]; 48 Hrs. after administration, *: significant decrease from baseline (5.5500 ± 0.9439), < 0.05) [mg/dL]
1 | O=C(O)Cn1c(=O)n(Cc2ccc(Br)cc2F)c(=O)c2ccc(F)cc21 [Compound B, 2-[7-Fluoro-3-(4-bromo-2-fluorobenzyl)-1,2,3,4-tetrahydro-2,4-dioxoquinazolin-1-yl]acetic acid] | 3.36 ± 0.14 | 4.02 ± 0.18 | 4.88 ± 0.24 | 2140 |  |  |  |  | 
2 | O=C(O)Cn1c(=O)n(Cc2ccc(Br)cc2F)c(=O)c2ccc(Cl)cc21 [Compound A] |  |  |  | 4250 | 4.5000 ± 0.6542 | 4.0333 ± 0.6250 | 4.1667 ± 0.7448 | 4.3167 ± 0.7360 | 4.5167 ± 0.5981
